# Laboratory results taken from the supplement of paper PMC10307832.
# Key:
# Test in all cases: relative viability (nuclei count vs DMSO), 5 days (fraction); higher = more cells survive
# Zebularine + Crizotinib = compound: O=c1ncccn1[C@@H]1O[C@H](CO)[C@@H](O)[C@H]1O [Zebularine] + C[C@@H](Oc1cc(-c2cnn(C3CCNCC3)c2)cnc1N)c1c(Cl)ccc(F)c1Cl [Crizotinib] (partner 1 µM)
# Outline: (§1)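 After 5 days of treatment, lung cancer cells in 1536-well plates were fixed and stained in a single step (final 0.05% Triton X-100, 1% formaldehyde, 1 ug/ml Hoechst) and their nuclei counted on 4× images. Treatment had been applied by pin tool the day after seeding as one drug alone or as a fixed anchor-drug dose with five library-drug doses (not always all listed) in √10 steps. Relative viability is the nuclei count of treated wells divided by that of vehicle wells, and values are medians of duplicate plates.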
# Zebularine + Decitabine = compound: O=c1ncccn1[C@@H]1O[C@H](CO)[C@@H](O)[C@H]1O [Zebularine] + Nc1ncn([C@H]2C[C@H](O)[C@@H](CO)O2)c(=O)n1 [Decitabine] (partner 2 µM)
# Outline: as §1
# BI-D1870 + Palbociclib = compound: CC(C)CCN1c2nc(Nc3cc(F)c(O)c(F)c3)ncc2N(C)C(=O)C1C [BI-D1870] + CC(=O)c1c(C)c2cnc(Nc3ccc(N4CCNCC4)cn3)nc2n(C2CCCC2)c1=O [Palbociclib] (partner 0.5 µM)
# Outline: as §1
# BI-D1870 + AZD7762 = compound: CC(C)CCN1c2nc(Nc3cc(F)c(O)c(F)c3)ncc2N(C)C(=O)C1C [BI-D1870] + NC(=O)Nc1cc(-c2cccc(F)c2)sc1C(=O)N[C@H]1CCCNC1 [AZD7762] (partner 0.2 µM)
# Outline: as §1
cell line,measurement,setting,value
NCI-H727,relative viability,Zebularine + Crizotinib; first compound 1 µM,0.927
same,relative viability,Zebularine + Crizotinib; first compound 3.162 µM,0.613
same,relative viability,Zebularine + Crizotinib; first compound 10 µM,0.638
same,relative viability,Zebularine + Crizotinib; first compound 31.62 µM,0.947
same,relative viability,Zebularine + Crizotinib; first compound 100 µM,0.881
same,relative viability,Zebularine + Decitabine; first compound 1 µM,0.855
same,relative viability,Zebularine + Decitabine; first compound 3.162 µM,0.903
same,relative viability,Zebularine + Decitabine; first compound 10 µM,0.867
same,relative viability,Zebularine + Decitabine; first compound 31.62 µM,0.84
same,relative viability,Zebularine + Decitabine; first compound 100 µM,0.826
same,relative viability,BI-D1870 + Palbociclib; first compound 0.04 µM,0.594
same,relative viability,BI-D1870 + Palbociclib; first compound 0.1265 µM,0.579
same,relative viability,BI-D1870 + Palbociclib; first compound 0.4 µM,0.648
same,relative viability,BI-D1870 + Palbociclib; first compound 1.265 µM,0.64
same,relative viability,BI-D1870 + Palbociclib; first compound 4 µM,0.66
same,relative viability,BI-D1870 + AZD7762; first compound 0.04 µM,0.575
same,relative viability,BI-D1870 + AZD7762; first compound 0.1265 µM,0.793
same,relative viability,BI-D1870 + AZD7762; first compound 0.4 µM,0.569
same,relative viability,BI-D1870 + AZD7762; first compound 1.265 µM,0.838
same,relative viability,BI-D1870 + AZD7762; first compound 4 µM,0.515
NCI-H1355,relative viability,Zebularine + Crizotinib; first compound 1 µM,1.12
same,relative viability,Zebularine + Crizotinib; first compound 3.162 µM,0.966
same,relative viability,Zebularine + Crizotinib; first compound 10 µM,0.87
same,relative viability,Zebularine + Crizotinib; first compound 31.62 µM,0.404
same,relative viability,Zebularine + Crizotinib; first compound 100 µM,0.315
same,relative viability,Zebularine + Decitabine; first compound 1 µM,0.34
same,relative viability,Zebularine + Decitabine; first compound 3.162 µM,0.329
same,relative viability,Zebularine + Decitabine; first compound 10 µM,0.334
same,relative viability,Zebularine + Decitabine; first compound 31.62 µM,0.314
same,relative viability,Zebularine + Decitabine; first compound 100 µM,0.28
same,relative viability,BI-D1870 + Palbociclib; first compound 0.04 µM,0.384
same,relative viability,BI-D1870 + Palbociclib; first compound 0.1265 µM,0.368
same,relative viability,BI-D1870 + Palbociclib; first compound 0.4 µM,0.403
same,relative viability,BI-D1870 + Palbociclib; first compound 1.265 µM,0.446
same,relative viability,BI-D1870 + Palbociclib; first compound 4 µM,0.392
same,relative viability,BI-D1870 + AZD7762; first compound 0.04 µM,0.954
same,relative viability,BI-D1870 + AZD7762; first compound 0.1265 µM,0.732
same,relative viability,BI-D1870 + AZD7762; first compound 0.4 µM,0.7
same,relative viability,BI-D1870 + AZD7762; first compound 1.265 µM,0.849
same,relative viability,BI-D1870 + AZD7762; first compound 4 µM,0.551
HOP-62,relative viability,Zebularine + Crizotinib; first compound 1 µM,0.923
same,relative viability,Zebularine + Crizotinib; first compound 3.162 µM,0.245
same,relative viability,Zebularine + Crizotinib; first compound 10 µM,0.601
same,relative viability,Zebularine + Crizotinib; first compound 31.62 µM,0.209
same,relative viability,Zebularine + Crizotinib; first compound 100 µM,0.129
same,relative viability,Zebularine + Decitabine; first compound 1 µM,0.205
same,relative viability,Zebularine + Decitabine; first compound 3.162 µM,0.205
same,relative viability,Zebularine + Decitabine; first compound 10 µM,0.209
same,relative viability,Zebularine + Decitabine; first compound 31.62 µM,0.164
same,relative viability,Zebularine + Decitabine; first compound 100 µM,0.178
same,relative viability,BI-D1870 + Palbociclib; first compound 0.04 µM,0.508
same,relative viability,BI-D1870 + Palbociclib; first compound 0.1265 µM,0.419
same,relative viability,BI-D1870 + Palbociclib; first compound 0.4 µM,0.496
same,relative viability,BI-D1870 + Palbociclib; first compound 1.265 µM,0.522
same,relative viability,BI-D1870 + Palbociclib; first compound 4 µM,0.405
same,relative viability,BI-D1870 + AZD7762; first compound 0.04 µM,0.969
same,relative viability,BI-D1870 + AZD7762; first compound 0.1265 µM,0.898
same,relative viability,BI-D1870 + AZD7762; first compound 0.4 µM,0.798
same,relative viability,BI-D1870 + AZD7762; first compound 1.265 µM,0.834
same,relative viability,BI-D1870 + AZD7762; first compound 4 µM,0.651
NCI-H2085,relative viability,Zebularine + Crizotinib; first compound 1 µM,0.986
same,relative viability,Zebularine + Crizotinib; first compound 3.162 µM,0.814
same,relative viability,Zebularine + Crizotinib; first compound 10 µM,0.827
same,relative viability,Zebularine + Crizotinib; first compound 31.62 µM,0.804
same,relative viability,Zebularine + Crizotinib; first compound 100 µM,0.488
same,relative viability,Zebularine + Decitabine; first compound 1 µM,0.543
same,relative viability,Zebularine + Decitabine; first compound 3.162 µM,0.506
same,relative viability,Zebularine + Decitabine; first compound 10 µM,0.487
same,relative viability,Zebularine + Decitabine; first compound 31.62 µM,0.576
same,relative viability,Zebularine + Decitabine; first compound 100 µM,0.508
same,relative viability,BI-D1870 + Palbociclib; first compound 0.04 µM,0.453
same,relative viability,BI-D1870 + Palbociclib; first compound 0.1265 µM,0.475
same,relative viability,BI-D1870 + Palbociclib; first compound 0.4 µM,0.474
same,relative viability,BI-D1870 + Palbociclib; first compound 1.265 µM,0.456
same,relative viability,BI-D1870 + Palbociclib; first compound 4 µM,0.355
same,relative viability,BI-D1870 + AZD7762; first compound 0.04 µM,1.06
same,relative viability,BI-D1870 + AZD7762; first compound 0.1265 µM,0.972
same,relative viability,BI-D1870 + AZD7762; first compound 0.4 µM,0.927
same,relative viability,BI-D1870 + AZD7762; first compound 1.265 µM,0.97
same,relative viability,BI-D1870 + AZD7762; first compound 4 µM,0.771
